Earlier results, collected in patent US20230383297A1, “NOVEL TARGETS FOR REACTIVATION OF PRADER-WILLI SYNDROME-ASSOCIATED GENES” (Duke University, priority 2020, published 2023).

System: PWS cells
Details: also causes DNA demethylation genome-wide

Nc1ncn([C@H]2C[C@H](O)[C@@H](CO)O2)c(=O)n1 [5-Aza-DC]
maternal gene expression from the PWS locus: reactivate maternal gene expression from the PWS locus
